The results in this text go back to patent publication US12258571B2, “Methods and compositions for inducible expression of neurotrophic factors” (CEDARS-SINAI MEDICAL CENTER, priority 2018, dated 2025).

Several values for one entry are separate records, joined by “and”; a condition that tells them apart may be missing. Equal values may be shown once.

Assay [1] has as its system TRE-Bi promoter. In words: Dual-luciferase assay in nucleofected iNPCs. It counts as cell-based, human. The note with it: 24-hour dox treatment; iNPCs nucleofected with pB-RTP-Tet-GDNF/memClover-FLuc, pBase and Ef1-Renilla. As to the method:
In all experiments, dox solution was maintained in light protection and 4° C. For cell culture, dox (Clontech 631311) was added to culture media at 100 ng/ml. For in vivo work, animals were administered dox (15 μg dox/g weight) every 3-4 days by oral gavage (e.g. 60 μl for a 20 g animal), using a soft-tipped feeding needle (Instech FTP-20-30; Plymouth Meeting, PA) attached to a 1 ml syringe (BD 309659; Franklin Lakes, NJ). To quantitatively assess reporter expression from the TRE-Bi promoter, iNPCs were nucleofected as above, along with an Ef1-Renilla plasmid that constitutively expresses Renilla luciferase for protein normalization. […] To assess the kinetics of the TRE-Bi inducible promoter, firefly luciferase activity was quantified in a live culture of the nucleofected iNPCs grown in the presence of beetle luciferin (FIG. 1F). […] As a clinically-relevant cell product would need to be expanded and banked, the Inventors assessed if the TRE-Bi promoter would remain functionally responsive with an extensive cell expansion and freeze.

For assay [2], the system named is TRE-Bi promoter. In words: Flow analysis of GFP induction after extensive cell expansion and freeze. It counts as cell-based, human. The note with it: 24 hours after adding dox; cells 6 months in culture after nucleofection, two freeze/thaw cycles. As to the method:
FIG. 5. IPSC-derived NPCs nucleofected with pB-RTP-Tet-GDNF/memClover-FLuc retain their ability to be induced upon the addition of dox. 83% of BF^+ cells were also GFP^+ (P5 Gate) 24 hours after adding dox to cells that were grown in culture for 6 months after nucleofection. Note: Cells were also exposed to two freeze/thaw cycles and were frozen for a total of 10 months during this period.
To quantitatively assess reporter expression from the TRE-Bi promoter, iNPCs were nucleofected as above, along with an Ef1-Renilla plasmid that constitutively expresses Renilla luciferase for protein normalization. […] To assess the kinetics of the TRE-Bi inducible promoter, firefly luciferase activity was quantified in a live culture of the nucleofected iNPCs grown in the presence of beetle luciferin (FIG. 1F). […] As a clinically-relevant cell product would need to be expanded and banked, the Inventors assessed if the TRE-Bi promoter would remain functionally responsive with an extensive cell expansion and freeze.

Another assay relates to GDNF. In words: Blinded postmortem GDNF scoring (DAB stain) of transplanted tissue. It counts as in vivo, NOD-SCID mice. On the set-up: key: (−) no positive staining; (+) slight staining; (++) moderate staining; (+++) extensive staining. The note with it: one line per animal; for GDNF Str/CC: striatum/corpus callosum. As to the method:
In all experiments, dox solution was maintained in light protection and 4° C. For cell culture, dox (Clontech 631311) was added to culture media at 100 ng/ml. For in vivo work, animals were administered dox (15 μg dox/g weight) every 3-4 days by oral gavage (e.g. 60 μl for a 20 g animal), using a soft-tipped feeding needle (Instech FTP-20-30; Plymouth Meeting, PA) attached to a 1 ml syringe (BD 309659; Franklin Lakes, NJ). Nucleofected iNPCs, which underwent two rounds of FACS for BFP, were transplanted into the striatum (41 of cells at 100,000 cells/μ1 into each hemisphere) of 6-month old NOD-SCID mice (Nod.cb17-Prkdc^scid/J, Jackson Lab #1303; Bar Harbor, ME). Three days before transplantation, a subset of cells was treated with dox. For transplantation, cells were dissociated and diluted to a final concentration of 100,000 cells/μl in conditioned media, and maintained on ice. Animals were anesthetized with isoflurane and placed in a stereotaxic frame. Cells were injected bilaterally relative to bregma at 0.7 mm rostral and +/−2.0 mm lateral. A 5 μl Hamilton microsyringe backfilled with PBS was loaded with 2 μl of cell solution and inserted to a depth of −4.00 mm. The microsyringe was then raised to −3.50 mm and the cell solution was injected at 1 μl/min. After cell injection, the microsyringe was raised to −3.00 mm, held for 2 minutes and slowly withdrawn. Animals were checked daily. Immunostained sections were photographed using a Leica DM200 LED microscope. Images were scored based on stain intensity of DAB GDNF stain by an observer blinded to the experiment conditions (dox vs no dox). Finally, DAB staining, which provides a high sensitivity of protein detection and has effectively tracked human GDNF-expressing NPC transplants, was used to determine the levels and location of GDNF expression.

Setting [3] is: animals that ended trial OFF dox (dox withdrawn).
The mark [4] stands for this setting: animals that ended trial ON dox.

As for `C[C@H]1c2cccc(O)c2C(=O)C2=C(O)[C@]3(O)C(=O)C(C(N)=O)=C(O)[C@@H](N(C)C)[C@@H]3[C@@H](O)[C@@H]21` [dox, doxycycline], the “increase in firefly luciferase activity (normalized to Renilla)” value in the assay with TRE-Bi promoter [1] was approximately 1300 fold. Moreover, the “BFP+ cells induced to express GFP” value in the assay with TRE-Bi promoter [2] stood at 83%. In addition, in the assay with GDNF (setting [3]), the “GDNF Meninges” value is recorded as “−” and the “GDNF Str/CC” value is recorded as “−”. For the same compound, in the assay on GDNF (setting [4]), the “GDNF Meninges” value was “+++ and − (3×) and + (2×) and ++”; the “GDNF Str/CC” value is “− (3×) and ++ (3×) and +”.
